ChEMBL document CHEMBL1275257, “Antimicrobial activity of CHIR-090, an inhibitor of lipopolysaccharide biosynthesis, against the Burkholderia cepacia complex” (2010)
≈ marks a conversion by molar mass, not a printed value. One block for each compound: values may come before it. Calls of active or inactive are those of the source. The rule behind the calls is not given here.

Legend:
Pseudomonas aeruginosa [1] = experiment: Antimicrobial activity against Pseudomonas aeruginosa ATCC 27853; type: functional
Escherichia coli = experiment: Antimicrobial activity against Escherichia coli 25922; type: functional
Pseudomonas aeruginosa [2] = experiment: Antimicrobial activity against Pseudomonas aeruginosa ATCC 10145; type: functional
Burkholderia stabilis [3] = experiment: Antimicrobial activity against genomovar type IV Burkholderia stabilis LMG 14086 at 40 ug/disk by disk diffusion growth inhibition assay; type: functional
Burkholderia cenocepacia [4] = experiment: Antimicrobial activity against genomovar type III Burkholderia cenocepacia J415 at 40 ug/disk by disk diffusion growth inhibition assay; type: functional; settings: read-out: DIZ
Burkholderia cenocepacia [5] = experiment: Antimicrobial activity against genomovar type III Burkholderia cenocepacia K562 at 40 ug/disk by disk diffusion growth inhibition assay; type: functional, organism-based
Burkholderia multivorans [6] = experiment: Antimicrobial activity against genomovar type II Burkholderia multivorans C1962; type: functional
Burkholderia pyrrocinia [7] = experiment: Antimicrobial activity against genomovar type IX Burkholderia pyrrocinia C1469 at 40 ug/disk by disk diffusion growth inhibition assay; type: functional
Burkholderia dolosa [8] = experiment: Antimicrobial activity against genomovar type VI Burkholderia dolosa STM1441 at 40 ug/disk by disk diffusion growth inhibition assay; type: functional; settings: read-out: DIZ
Burkholderia multivorans [9] = experiment: Antimicrobial activity against genomovar type II Burkholderia multivorans JTC at 40 ug/disk by disk diffusion growth inhibition assay; type: functional; settings: read-out: DIZ
Burkholderia stabilis [10] = experiment: Antimicrobial activity against genomovar type IV Burkholderia stabilis C7322 at 40 ug/disk by disk diffusion growth inhibition assay; type: functional; settings: read-out: DIZ
[11] = tested on: Burkholderia vietnamiensis; experiment: Antimicrobial activity against genomovar type V Burkholderia vietnamiensis PC259 at 40 ug/disk by disk diffusion growth inhibition assay; type: functional; settings: read-out: DIZ
Burkholderia cenocepacia [12] = experiment: Antimicrobial activity against genomovar type III Burkholderia cenocepacia BC7 at 40 ug/disk by disk diffusion growth inhibition assay; type: functional, organism-based
Burkholderia cenocepacia [13] = experiment: Antimicrobial activity against genomovar type III Burkholderia cenocepacia C6433 at 40 ug/disk by disk diffusion growth inhibition assay; type: functional, organism-based
Burkholderia pyrrocinia [14] = experiment: Antimicrobial activity against genomovar type IX Burkholderia pyrrocinia ATCC 39277 at 40 ug/disk by disk diffusion growth inhibition assay; type: functional; settings: read-out: DIZ
Burkholderia anthina [15] = experiment: Antimicrobial activity against genomovar type VIII Burkholderia anthina C1765 at 40 ug/disk by disk diffusion growth inhibition assay; type: functional; settings: read-out: DIZ
Burkholderia anthina [16] = experiment: Antimicrobial activity against genomovar type VIII Burkholderia anthina AU1293 at 40 ug/disk by disk diffusion growth inhibition assay; type: functional; settings: read-out: DIZ
Burkholderia cepacia [17] = experiment: Antimicrobial activity against genomovar type I Burkholderia cepacia ATCC 25416 at 40 ug/disk by disk diffusion growth inhibition assay; type: functional, organism-based
Burkholderia multivorans [18] = experiment: Antimicrobial activity against genomovar type II Burkholderia multivorans 249-2; type: functional
Burkholderia multivorans [19] = experiment: Antimicrobial activity against genomovar type II Burkholderia multivorans C1576 at 40 ug/disk by disk diffusion growth inhibition assay; type: functional; settings: read-out: DIZ
Burkholderia ambifaria [20] = experiment: Antimicrobial activity against genomovar type VII Burkholderia ambifaria ATCC 53266 at 40 ug/disk by disk diffusion growth inhibition assay; type: functional; settings: read-out: DIZ
Burkholderia stabilis [21] = experiment: Antimicrobial activity against genomovar type IV Burkholderia stabilis LMG 14294 at 40 ug/disk by disk diffusion growth inhibition assay; type: functional
Burkholderia multivorans [22] = experiment: Antimicrobial activity against genomovar type II Burkholderia multivorans C5393 at 40 ug/disk by disk diffusion growth inhibition assay; type: functional; settings: read-out: DIZ
Burkholderia multivorans [23] = experiment: Antimicrobial activity against genomovar type II Burkholderia multivorans ATCC 17616 at 40 ug/disk by disk diffusion growth inhibition assay; type: functional; settings: read-out: DIZ
Burkholderia cenocepacia [24] = experiment: Antimicrobial activity against genomovar type III Burkholderia cenocepacia J2315 at 40 ug/disk by disk diffusion growth inhibition assay; type: functional, organism-based
Burkholderia pyrrocinia [25] = experiment: Antimicrobial activity against genomovar type IX Burkholderia pyrrocinia ATCC 15958 at 40 ug/disk by disk diffusion growth inhibition assay; type: functional; settings: read-out: DIZ
[26] = tested on: Burkholderia vietnamiensis; experiment: Antimicrobial activity against genomovar type V Burkholderia vietnamiensis LMG 16232 at 40 ug/disk by disk diffusion growth inhibition assay; type: functional; settings: read-out: DIZ
Burkholderia multivorans [27] = experiment: Antimicrobial activity against genomovar type II Burkholderia multivorans LMG 13010 at 40 ug/disk by disk diffusion growth inhibition assay; type: functional; settings: read-out: DIZ
Burkholderia anthina [28] = experiment: Antimicrobial activity against genomovar type VIII Burkholderia anthina W92 at 40 ug/disk by disk diffusion growth inhibition assay; type: functional
Burkholderia cenocepacia [29] = experiment: Antimicrobial activity against genomovar type III Burkholderia cenocepacia C5424 at 40 ug/disk by disk diffusion growth inhibition assay; type: functional; settings: read-out: DIZ
Burkholderia multivorans [30] = experiment: Antimicrobial activity against genomovar type II Burkholderia multivorans ATCC 17616; type: functional
Burkholderia multivorans [31] = experiment: Antimicrobial activity against genomovar type II Burkholderia multivorans C1962 at 40 ug/disk by disk diffusion growth inhibition assay; type: functional; settings: read-out: DIZ
[32] = tested on: Burkholderia vietnamiensis; experiment: Antimicrobial activity against genomovar type V Burkholderia vietnamiensis FC441 at 40 ug/disk by disk diffusion growth inhibition assay; type: functional; settings: read-out: DIZ
[33] = tested on: Burkholderia vietnamiensis; experiment: Antimicrobial activity against genomovar type V Burkholderia vietnamiensis LMG 10929 at 40 ug/disk by disk diffusion growth inhibition assay; type: functional; settings: read-out: DIZ
Burkholderia multivorans [34] = experiment: Antimicrobial activity against genomovar type II Burkholderia multivorans C1576; type: functional
Burkholderia cepacia [35] = experiment: Antimicrobial activity against genomovar type I Burkholderia cepacia ATCC 17759 at 40 ug/disk by disk diffusion growth inhibition assay; type: functional, organism-based
Burkholderia cenocepacia [36] = experiment: Antimicrobial activity against genomovar type III Burkholderia cenocepacia CEP511 at 40 ug/disk by disk diffusion growth inhibition assay; type: functional, organism-based
Burkholderia cepacia [37] = experiment: Antimicrobial activity against genomovar type I Burkholderia cepacia CEP509 at 40 ug/disk by disk diffusion growth inhibition assay; type: functional, organism-based
Burkholderia cenocepacia [38] = experiment: Antimicrobial activity against genomovar type III Burkholderia cenocepacia ATCC 17765 at 40 ug/disk by disk diffusion growth inhibition assay; type: functional, organism-based
Burkholderia multivorans [39] = experiment: Antimicrobial activity against genomovar type II Burkholderia multivorans CF-A1-1; type: functional
Burkholderia multivorans [40] = experiment: Antimicrobial activity against genomovar type II Burkholderia multivorans CFA11 at 40 ug/disk by disk diffusion growth inhibition assay; type: functional; settings: read-out: DIZ
Burkholderia dolosa [41] = experiment: Antimicrobial activity against genomovar type VI Burkholderia dolosa E12 at 40 ug/disk by disk diffusion growth inhibition assay; type: functional; settings: read-out: DIZ
Burkholderia multivorans [42] = experiment: Antimicrobial activity against genomovar type II Burkholderia multivorans C5393; type: functional
Burkholderia ambifaria [43] = experiment: Antimicrobial activity against genomovar type VII Burkholderia ambifaria AMMD at 40 ug/disk by disk diffusion growth inhibition assay; type: functional; settings: read-out: DIZ
Burkholderia cenocepacia [44] = experiment: Antimicrobial activity against genomovar type III Burkholderia cenocepacia SAL1 at 40 ug/disk by disk diffusion growth inhibition assay; type: functional, organism-based
Burkholderia cenocepacia [45] = experiment: Antimicrobial activity against genomovar type III Burkholderia cenocepacia PC184 at 40 ug/disk by disk diffusion growth inhibition assay; type: functional; settings: read-out: DIZ
Burkholderia anthina [46] = experiment: Antimicrobial activity against genomovar type VIII Burkholderia anthina J2552 at 40 ug/disk by disk diffusion growth inhibition assay; type: functional
Burkholderia dolosa [47] = experiment: Antimicrobial activity against genomovar type VI Burkholderia dolosa CEP021 at 40 ug/disk by disk diffusion growth inhibition assay; type: functional; settings: read-out: DIZ
Burkholderia ambifaria [48] = experiment: Antimicrobial activity against genomovar type VII Burkholderia ambifaria CEP0996 at 40 ug/disk by disk diffusion growth inhibition assay; type: functional; settings: read-out: DIZ
Burkholderia stabilis [49] = experiment: Antimicrobial activity against genomovar type IV Burkholderia stabilis LMG 18888 at 40 ug/disk by disk diffusion growth inhibition assay; type: functional
Burkholderia pyrrocinia [50] = experiment: Antimicrobial activity against genomovar type IX Burkholderia pyrrocinia BC011 at 40 ug/disk by disk diffusion growth inhibition assay; type: functional; settings: read-out: DIZ
Burkholderia multivorans [51] = experiment: Antimicrobial activity against genomovar type II Burkholderia multivorans JTC; type: functional
Burkholderia multivorans [52] = experiment: Antimicrobial activity against genomovar type II Burkholderia multivorans 2492-2 at 40 ug/disk by disk diffusion growth inhibition assay; type: functional; settings: read-out: DIZ
Burkholderia dolosa [53] = experiment: Antimicrobial activity against genomovar type VI Burkholderia dolosa AU0645 at 40 ug/disk by disk diffusion growth inhibition assay; type: functional; settings: read-out: DIZ

MIC (Pseudomonas aeruginosa [1]): 3.13 µg/mL | MIC (Escherichia coli): 0.78 µg/mL | MIC (Pseudomonas aeruginosa [2]): 3.13 µg/mL
Compound: POLYMYXIN B

MIC (Burkholderia multivorans [6]): 3.13 µg/mL (≈ 7.15 µM) | MIC (Pseudomonas aeruginosa [1]): 0.78 µg/mL (≈ 1.78 µM) | MIC (Burkholderia multivorans [18]): 0.1 µg/mL (≈ 0.229 µM) | MIC (Escherichia coli): 0.05 µg/mL (≈ 0.114 µM) | MIC (Burkholderia multivorans [30]): 6.25 µg/mL (≈ 14.3 µM) | MIC (Burkholderia multivorans [34]): 12.5 µg/mL (≈ 28.6 µM) | MIC (Burkholderia multivorans [39]): 1.56 µg/mL (≈ 3.57 µM) | MIC (Burkholderia multivorans [42]): 3.13 µg/mL (≈ 7.15 µM) | MIC (Pseudomonas aeruginosa [2]): 0.78 µg/mL (≈ 1.78 µM) | MIC (Burkholderia multivorans [51]): 1.56 µg/mL (≈ 3.57 µM)
Compound: C[C@@H](O)[C@H](NC(=O)c1ccc(C#Cc2ccc(CN3CCOCC3)cc2)cc1)C(=O)NO
diameter of the inhibition zone (DIZ) (Burkholderia stabilis [3]): inactive | zone of inhibition at 40 µg/disc (Burkholderia cenocepacia [4]): 21 mm | diameter of the inhibition zone (DIZ) (Burkholderia cenocepacia [5]): inactive | diameter of the inhibition zone (DIZ) (Burkholderia pyrrocinia [7]): inactive | zone of inhibition at 40 µg/disc (Burkholderia dolosa [8]): 21 mm | zone of inhibition at 40 µg/disc (Burkholderia multivorans [9]): 23 mm | zone of inhibition at 40 µg/disc (Burkholderia stabilis [10]): 14 mm | zone of inhibition at 40 µg/disc [11]: 26 mm | diameter of the inhibition zone (DIZ) (Burkholderia cenocepacia [12]): inactive | diameter of the inhibition zone (DIZ) (Burkholderia cenocepacia [13]): inactive | zone of inhibition at 40 µg/disc (Burkholderia pyrrocinia [14]): 22 mm | zone of inhibition at 40 µg/disc (Burkholderia anthina [15]): 13 mm | zone of inhibition at 40 µg/disc (Burkholderia anthina [16]): 10 mm | diameter of the inhibition zone (DIZ) (Burkholderia cepacia [17]): inactive | zone of inhibition at 40 µg/disc (Burkholderia multivorans [19]): 15 mm | zone of inhibition at 40 µg/disc (Burkholderia ambifaria [20]): 24 mm | diameter of the inhibition zone (DIZ) (Burkholderia stabilis [21]): inactive | zone of inhibition at 40 µg/disc (Burkholderia multivorans [22]): 20 mm | zone of inhibition at 40 µg/disc (Burkholderia multivorans [23]): 17 mm | diameter of the inhibition zone (DIZ) (Burkholderia cenocepacia [24]): inactive | zone of inhibition at 40 µg/disc (Burkholderia pyrrocinia [25]): 20 mm | zone of inhibition at 40 µg/disc [26]: 23 mm | zone of inhibition at 40 µg/disc (Burkholderia multivorans [27]): 14 mm | diameter of the inhibition zone (DIZ) (Burkholderia anthina [28]): inactive | zone of inhibition at 40 µg/disc (Burkholderia cenocepacia [29]): 19 mm | zone of inhibition at 40 µg/disc (Burkholderia multivorans [31]): 24 mm | zone of inhibition at 40 µg/disc [32]: 9 mm | zone of inhibition at 40 µg/disc [33]: 23 mm | diameter of the inhibition zone (DIZ) (Burkholderia cepacia [35]): inactive | diameter of the inhibition zone (DIZ) (Burkholderia cenocepacia [36]): inactive | diameter of the inhibition zone (DIZ) (Burkholderia cepacia [37]): inactive | diameter of the inhibition zone (DIZ) (Burkholderia cenocepacia [38]): inactive | zone of inhibition at 40 µg/disc (Burkholderia multivorans [40]): 22 mm | zone of inhibition at 40 µg/disc (Burkholderia dolosa [41]): 23 mm | zone of inhibition at 40 µg/disc (Burkholderia ambifaria [43]): 23 mm | diameter of the inhibition zone (DIZ) (Burkholderia cenocepacia [44]): inactive | zone of inhibition at 40 µg/disc (Burkholderia cenocepacia [45]): 18 mm | diameter of the inhibition zone (DIZ) (Burkholderia anthina [46]): inactive | zone of inhibition at 40 µg/disc (Burkholderia dolosa [47]): 24 mm | zone of inhibition at 40 µg/disc (Burkholderia ambifaria [48]): 22 mm | diameter of the inhibition zone (DIZ) (Burkholderia stabilis [49]): inactive | zone of inhibition at 40 µg/disc (Burkholderia pyrrocinia [50]): 23 mm | zone of inhibition at 40 µg/disc (Burkholderia multivorans [52]): 26 mm | zone of inhibition at 40 µg/disc (Burkholderia dolosa [53]): 18 mm
